In this assay the target is recombinant EZH2-641F complex (EZH2 Y641F/EED/SUZ12/RbAp48/AEBP2) (Homo sapiens (Human), UniProt Q15910, Y641F). Kind of assay: EZH2 Histone Methyl Transferase Assay (scintillation proximity assay). As to conditions: 350 nM histone peptide substrate, 500 nM 3H-SAM, 3 hours room temperature. In kind it is biochemical. As to the method:
EZH2 Histone Methyl Transferase Assay
The effectiveness of compounds of the present invention as inhibitors of histone methyl transferases can be readily tested by assays known to those skilled in the art. For example, in vitro histone methyl transferase assays may be conducted with a relevant purified histone methyl transferase and an appropriate synthetic substrate to determine the inhibitory activity of the compounds. Assays for inhibition of EZH2 by the instant compounds were performed in 384-well plates with reaction mixtures containing 350 nM of histone peptide substrate (ATKAAR-K(Me2)-SAPATGGVKKPHRYRPG-GK(Biotin), 500 nM S-[methyl-^3H]adenosyl-L-methionine (55-85 Ci/mmol), 50 mM Tris-HCl (pH 9.0), 50 mM NaCl, 1 mM dithiothreitol, Tween-20 at 0.01% and fatty-acid free bovine serum albumin at 0.01%, and recombinant EZH2-641F complex (EZH2 Y641F/EED/SUZ12/RbAp48/AEBP2) at 5 nM (>98% purity, BPS Bioscience) or 15 nM (50% purity, in-house). Reaction mixtures were incubated at room temperature for 3 hours, and the reactions were terminated by 0.005% poly-L-lysine solution in 20 mM Tris-HCl (pH 7.5) and 150 mM NaCl. Reaction products were captured by binding to strepavidin-conjugated imaging beads. Incorporation of radioactive methyl group into the histone peptide substrate was determined in Leadseeker (GE Healthcare) by means of scintillation proximity assay. Dose response curves were generated to determine the concentration required to inhibit 50% of methyl transferase activity (EC50). Compounds were dissolved at 10 mM in dimethylsulfoxide (DMSO) and evaluated at eleven concentrations. EC50 values were derived by non-linear regression analysis.

Structures are written as SMILES. pIC50: −log10 of the molar value. Bounds are passed on as bounds.

Drawing on US9822103B2, “Inhibitors of lysine methyl transferase” (priority 2013, dated 2017), this text covers IC50 for 25 compounds.

recombinant EZH2-641F complex (EZH2 Y641F/EED/SUZ12/RbAp48/AEBP2), sequence (Q15910 whole entry Y641F): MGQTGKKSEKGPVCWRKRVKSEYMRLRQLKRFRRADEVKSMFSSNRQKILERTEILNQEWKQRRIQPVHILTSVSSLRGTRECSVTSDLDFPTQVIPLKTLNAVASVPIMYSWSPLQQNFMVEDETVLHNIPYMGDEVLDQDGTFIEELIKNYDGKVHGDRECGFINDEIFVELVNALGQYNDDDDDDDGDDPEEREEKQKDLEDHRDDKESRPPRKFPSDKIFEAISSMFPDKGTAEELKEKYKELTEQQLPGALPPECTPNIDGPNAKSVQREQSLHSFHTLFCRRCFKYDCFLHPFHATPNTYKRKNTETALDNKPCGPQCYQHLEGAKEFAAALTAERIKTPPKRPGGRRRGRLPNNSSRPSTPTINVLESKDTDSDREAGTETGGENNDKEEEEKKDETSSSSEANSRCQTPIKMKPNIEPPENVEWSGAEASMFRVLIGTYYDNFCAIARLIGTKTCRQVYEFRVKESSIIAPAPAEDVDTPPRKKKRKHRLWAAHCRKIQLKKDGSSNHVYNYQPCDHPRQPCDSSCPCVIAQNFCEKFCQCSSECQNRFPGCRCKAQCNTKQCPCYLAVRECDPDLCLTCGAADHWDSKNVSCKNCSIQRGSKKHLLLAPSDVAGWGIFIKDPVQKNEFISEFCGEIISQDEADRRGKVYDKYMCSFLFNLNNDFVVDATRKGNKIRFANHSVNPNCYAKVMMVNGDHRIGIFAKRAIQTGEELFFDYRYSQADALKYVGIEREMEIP
recombinant EZH2-641F complex (EZH2 Y641F/EED/SUZ12/RbAp48/AEBP2), sequence (O75530 whole entry partner): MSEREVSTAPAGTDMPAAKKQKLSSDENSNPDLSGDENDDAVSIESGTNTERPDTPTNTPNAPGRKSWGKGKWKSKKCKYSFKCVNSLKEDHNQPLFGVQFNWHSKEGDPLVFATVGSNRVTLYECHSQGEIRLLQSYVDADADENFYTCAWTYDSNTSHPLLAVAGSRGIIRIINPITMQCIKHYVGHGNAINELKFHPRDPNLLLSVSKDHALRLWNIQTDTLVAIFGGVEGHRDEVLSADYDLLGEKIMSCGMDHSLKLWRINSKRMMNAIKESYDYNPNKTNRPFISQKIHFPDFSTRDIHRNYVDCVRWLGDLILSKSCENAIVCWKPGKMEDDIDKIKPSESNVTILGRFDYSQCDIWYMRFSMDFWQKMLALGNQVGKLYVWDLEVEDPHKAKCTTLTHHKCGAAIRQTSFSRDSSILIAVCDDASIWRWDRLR
recombinant EZH2-641F complex (EZH2 Y641F/EED/SUZ12/RbAp48/AEBP2), sequence (Q15022 whole entry partner): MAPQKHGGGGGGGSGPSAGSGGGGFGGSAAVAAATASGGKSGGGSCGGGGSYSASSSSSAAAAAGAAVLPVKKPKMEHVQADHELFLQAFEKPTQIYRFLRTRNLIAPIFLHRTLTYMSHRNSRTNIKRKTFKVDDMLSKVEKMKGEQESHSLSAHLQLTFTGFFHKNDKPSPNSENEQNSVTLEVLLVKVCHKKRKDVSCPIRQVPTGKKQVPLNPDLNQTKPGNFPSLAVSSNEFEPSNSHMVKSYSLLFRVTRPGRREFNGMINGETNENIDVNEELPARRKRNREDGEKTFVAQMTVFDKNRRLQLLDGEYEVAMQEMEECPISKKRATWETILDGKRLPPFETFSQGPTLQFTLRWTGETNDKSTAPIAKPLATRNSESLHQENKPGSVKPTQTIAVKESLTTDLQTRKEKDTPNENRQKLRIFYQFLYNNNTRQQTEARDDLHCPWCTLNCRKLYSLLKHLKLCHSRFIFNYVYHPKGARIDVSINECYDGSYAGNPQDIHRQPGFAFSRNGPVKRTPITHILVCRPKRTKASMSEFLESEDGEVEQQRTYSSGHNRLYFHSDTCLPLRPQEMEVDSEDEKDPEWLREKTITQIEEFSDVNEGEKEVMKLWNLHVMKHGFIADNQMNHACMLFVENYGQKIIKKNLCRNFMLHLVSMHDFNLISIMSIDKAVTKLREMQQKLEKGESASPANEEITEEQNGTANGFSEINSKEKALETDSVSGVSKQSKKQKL
recombinant EZH2-641F complex (EZH2 Y641F/EED/SUZ12/RbAp48/AEBP2), sequence (Q09028 whole entry partner): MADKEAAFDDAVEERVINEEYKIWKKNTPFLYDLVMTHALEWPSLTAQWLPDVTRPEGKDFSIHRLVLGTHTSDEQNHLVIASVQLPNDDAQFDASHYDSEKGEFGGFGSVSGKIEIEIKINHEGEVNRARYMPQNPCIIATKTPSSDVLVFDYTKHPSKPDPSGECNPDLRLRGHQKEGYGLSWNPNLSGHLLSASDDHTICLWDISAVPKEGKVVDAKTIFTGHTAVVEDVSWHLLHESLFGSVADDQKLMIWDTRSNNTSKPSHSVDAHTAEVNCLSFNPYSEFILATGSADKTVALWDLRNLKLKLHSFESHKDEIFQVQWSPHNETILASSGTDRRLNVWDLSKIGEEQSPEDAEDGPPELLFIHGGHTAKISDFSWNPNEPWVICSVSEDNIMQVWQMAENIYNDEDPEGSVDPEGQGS
recombinant EZH2-641F complex (EZH2 Y641F/EED/SUZ12/RbAp48/AEBP2), sequence (Q6ZN18 whole entry partner): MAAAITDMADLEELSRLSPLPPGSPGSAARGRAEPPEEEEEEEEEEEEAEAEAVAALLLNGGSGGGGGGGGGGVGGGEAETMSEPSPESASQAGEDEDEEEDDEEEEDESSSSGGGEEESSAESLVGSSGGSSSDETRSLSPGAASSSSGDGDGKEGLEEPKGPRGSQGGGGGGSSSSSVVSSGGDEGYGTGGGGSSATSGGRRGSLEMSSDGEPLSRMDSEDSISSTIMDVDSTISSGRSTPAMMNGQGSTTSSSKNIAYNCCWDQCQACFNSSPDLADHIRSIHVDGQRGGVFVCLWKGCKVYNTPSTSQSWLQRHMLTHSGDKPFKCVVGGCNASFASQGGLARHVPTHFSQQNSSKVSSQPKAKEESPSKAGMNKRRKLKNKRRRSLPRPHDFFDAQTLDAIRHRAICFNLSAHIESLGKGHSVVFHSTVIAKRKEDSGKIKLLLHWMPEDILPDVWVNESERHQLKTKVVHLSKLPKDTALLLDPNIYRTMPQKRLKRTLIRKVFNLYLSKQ

For `Cc1cc(C)c(CNC(=O)c2cc(Br)c3c(c2)[C@@H](C)[C@H](C)O3)c(=O)[nH]1` (racemic) [Example 40, rac-(2S,3R)-7-bromo-N-((4,6-dimethyl-2-oxo-1,2-dihydropyridin-3-yl)methyl)-2,3-dimethyl-2,3-dihydrobenzofuran-5-carboxamide], the negative logarithm of the IC50 (pIC50) was below 6.00. As to `Cc1cc(C)c(CNC(=O)c2cc(Br)c3c(c2)[C@@H]2CCC[C@]2(C)O3)c(=O)[nH]1` (racemic) [Example 64, rac-(3aS,8bS)-5-Bromo-N-((4,6-dimethyl-2-oxo-1,2-dihydropyridin-3-yl)methyl)-3a-methyl-2,3,3a,8b-tetrahydro-1H-cyclopenta[b]benzofuran-7-carboxamide], the pIC50 was below 6.00. On to `Cc1cc(C)c(CNC(=O)c2cc(-c3ccc(N4CCNCC4)nc3)c3c(c2)[C@@H]2CCC[C@]2(C)O3)c(=O)[nH]1` (racemic) [Example 65, rac-(3aS,8bS)—N-((4,6-Dimethyl-2-oxo-1,2-dihydropyridin-3-yl)methyl)-3a-methyl-5-(6-(piperazin-1-yl)pyridin-3-yl)-2,3,3a,8b-tetrahydro-1H-cyclopenta[b]benzofuran-7-carboxamide], for which the negative logarithm of the IC50 (pIC50) was above 6.30. On to `COc1ccc(-c2cc(C(=O)NCc3c(C)cc(C)[nH]c3=O)cc3c2O[C@@]2(C)CCC[C@@H]32)cn1` (racemic) [Example 66, rac-(3aS,8bS)—N-((4,6-Dimethyl-2-oxo-1,2-dihydropyridin-3-yl)methyl)-5-(6-methoxypyridin-3-yl)-3a-methyl-2,3,3a,8b-tetrahydro-1H-cyclopenta[b]benzofuran-7-carboxamide], for which the negative-log IC50 (pIC50) was 6.00 to 6.30. Take `Cc1cc(C)c(CNC(=O)c2cc(-c3ccc(CN4CCCCC4)cc3)c3c(c2)[C@@H]2CCC[C@]2(C)O3)c(=O)[nH]1` (racemic) [Example 67, rac-(3aS,8bS)—N-((4,6-Dimethyl-2-oxo-1,2-dihydropyridin-3-yl)methyl)-3a-methyl-5-(4-(piperidin-1-ylmethyl)phenyl)-2,3,3a,8b-tetrahydro-1H-cyclopenta[b]benzofuran-7-carboxamide]: the pIC50 is 6.00 to 6.30. For the compound `Cc1cc(C)c(CNC(=O)c2cc(-c3ccc(N4CCNCC4)cc3)c3c(c2)[C@@H]2CCC[C@]2(C)O3)c(=O)[nH]1` (racemic) [Example 68, rac-(3aS,8bS)—N-((4,6-Dimethyl-2-oxo-1,2-dihydropyridin-3-yl)methyl)-3a-methyl-5-(4-(piperazin-1-yl)phenyl)-2,3,3a,8b-tetrahydro-1H-cyclopenta[b]benzofuran-7-carboxamide], the pIC50 was 6.00 to 6.30.

For `Cc1cc(C)c(CNC(=O)c2cc3c(c(Br)c2C)O[C@@]2(C)CCC[C@@H]32)c(=O)[nH]1` (racemic) [Example 69, rac-(3aS,8bS)-5-Bromo-N-((4,6-dimethyl-2-oxo-1,2-dihydropyridin-3-yl)methyl)-3a,6-dimethyl-2,3,3a,8b-tetrahydro-1H-cyclopenta[b]benzofuran-7-carboxamide], the pIC50 was above 6.30.

For the compound `Cc1cc(C)c(CNC(=O)c2cc(Br)c3c(c2)CC(C)(C)O3)c(=O)[nH]1` [Example 1, 7-Bromo-N-((4,6-dimethyl-2-oxo-1,2-dihydropyridin-3-yl)methyl)-2,2-dimethyl-2,3-dihydrobenzofuran-5-carboxamide], the pIC50 is above 6.30. Consider `Cc1cc(C)c(CNC(=O)c2ccc3c(c2)CC(C)(C)O3)c(=O)[nH]1` [Example 2, N-((4,6-Dimethyl-2-oxo-1,2-dihydropyridin-3-yl)methyl)-2,2-dimethyl-2,3-dihydrobenzofuran-5-carboxamide], for which the pIC50 is below 6.00. `Cc1cc(C)c(CNC(=O)c2cc(Cl)c3c(c2)CC(C)(C)O3)c(=O)[nH]1` [Example 3, 7-Chloro-N-((4,6-dimethyl-2-oxo-1,2-dihydropyridin-3-yl)methyl)-2,2-dimethyl-2,3-dihydrobenzofuran-5-carboxamide]: the negative-log IC50 (pIC50) was below 6.00.

On to `Cc1cc(C)c(CNC(=O)c2cc(F)c3c(c2)CC(C)(C)O3)c(=O)[nH]1` [Example 4, N-((4,6-Dimethyl-2-oxo-1,2-dihydropyridin-3-yl)methyl)-7-fluoro-2,2-dimethyl-2,3-dihydrobenzofuran-5-carboxamide], for which the pIC50 is below 6.00. Turning to `Cc1cc(C)c(CNC(=O)c2cc(C)c3c(c2)CC(C)(C)O3)c(=O)[nH]1` [Example 6, N-((4,6-Dimethyl-2-oxo-1,2-dihydropyridin-3-yl)methyl)-2,2,7-trimethyl-2,3-dihydrobenzofuran-5-carboxamide], the negative-log IC50 (pIC50) is below 6.00. Turning to `Cc1cc(C)c(CNC(=O)c2cc(Br)c3c(c2C)CC(C)(C)O3)c(=O)[nH]1` [Example 7, 7-Bromo-N-((4,6-dimethyl-2-oxo-1,2-dihydropyridin-3-yl)methyl)-2,2,4-trimethyl-2,3-dihydrobenzofuran-5-carboxamide], the pIC50 was 6.00 to 6.30.

As to `Cc1cc(C)c(CNC(=O)c2ccc3c(c2C)CC(C)(C)O3)c(=O)[nH]1` [Example 8, N-((4,6-Dimethyl-2-oxo-1,2-dihydropyridin-3-yl)methyl)-2,2,4-trimethyl-2,3-dihydrobenzofuran-5-carboxamide], the negative logarithm of the IC50 (pIC50) is below 6.00. For `Cc1cc(C)c(CNC(=O)c2cc(C)c3c(c2C)CC(C)(C)O3)c(=O)[nH]1` [Example 9, N-((4,6-Dimethyl-2-oxo-1,2-dihydropyridin-3-yl)methyl)-2,2,4,7-tetramethyl-2,3-dihydrobenzofuran-5-carboxamide] the value was below 6.00; for `Cc1cc(C)c(CNC(=O)c2cc3c(c(-c4ccc(CN5CCOCC5)cc4)c2)OC(C)(C)C3)c(=O)[nH]1` [Example 10, N-((4,6-Dimethyl-2-oxo-1,2-dihydropyridin-3-yl)methyl)-2,2-dimethyl-7-(4-(morpholinomethyl)phenyl)-2,3-dihydrobenzofuran-5-carboxamide], below 6.00. For `Cc1cc(C)c(CNC(=O)c2cc3c(c(-c4ccc(N5CCNCC5)nc4)c2)OC(C)(C)C3)c(=O)[nH]1` [Example 11, N-((4,6-Dimethyl-2-oxo-1,2-dihydropyridin-3-yl)methyl)-2,2-dimethyl-7-(6-(piperazin-1-yl)pyridin-3-yl)-2,3-dihydrobenzofuran-5-carboxamide], the pIC50 is above 6.30. For the compound `Cc1cc(C)c(CNC(=O)c2cc3c(c(-c4ccc(N5CCOCC5)nc4)c2)OC(C)(C)C3)c(=O)[nH]1` [Example 12, N-((4,6-Dimethyl-2-oxo-1,2-dihydropyridin-3-yl)methyl)-2,2-dimethyl-7-(6-morpholinopyridin-3-yl)-2,3-dihydrobenzofuran-5-carboxamide], the negative logarithm of the IC50 (pIC50) was above 6.30. In the case of `Cc1cc(C)c(CNC(=O)c2cc3c(c(-c4cnc5ccccc5c4)c2)OC(C)(C)C3)c(=O)[nH]1` [Example 13, N-((4,6-Dimethyl-2-oxo-1,2-dihydropyridin-3-yl)methyl)-2,2-dimethyl-7-(quinolin-3-yl)-2,3-dihydrobenzofuran-5-carboxamide], the negative logarithm of the IC50 (pIC50) is below 6.00. Turning to `COc1ccc(-c2cc(C(=O)NCc3c(C)cc(C)[nH]c3=O)cc3c2OC(C)(C)C3)cn1` [Example 14, N-((4,6-Dimethyl-2-oxo-1,2-dihydropyridin-3-yl)methyl)-7-(6-methoxypyridin-3-yl)-2,2-dimethyl-2,3-dihydrobenzofuran-5-carboxamide], the negative logarithm of the IC50 (pIC50) was 6.00 to 6.30.

In the case of `Cc1cc(C)c(CNC(=O)c2cc(/C=C/c3ccccc3)c3c(c2)CC(C)(C)O3)c(=O)[nH]1` [Example 15, (E)-N-((4,6-Dimethyl-2-oxo-1,2-dihydropyridin-3-yl)methyl)-2,2-dimethyl-7-styryl-2,3-dihydrobenzofuran-5-carboxamide], the pIC50 is below 6.00.

For `Cc1cc(C)c(CNC(=O)c2cc3c(c(-c4ccc(C(=O)N5CCN(C)CC5)cc4)c2)OC(C)(C)C3)c(=O)[nH]1` [Example 16, N-((4,6-Dimethyl-2-oxo-1,2-dihydropyridin-3-yl)methyl)-2,2-dimethyl-7-(4-(4-methylpiperazine-1-carbonyl)phenyl)-2,3-dihydrobenzofuran-5-carboxamide], the negative-log IC50 (pIC50) was below 6.00. As to `Cc1cc(C)c(CNC(=O)c2cc3c(c(-c4cnc(N5CCN(C(=O)OC(C)(C)C)CC5)nc4)c2)OC(C)(C)C3)c(=O)[nH]1` [Example 17, t-Butyl 4-(5-(5-(((4,6-dimethyl-2-oxo-1,2-dihydropyridin-3-yl)methyl)carbamoyl)-2,2-dimethyl-2,3-dihydrobenzofuran-7-yl)pyrimidin-2-yl)piperazine-1-carboxylate], the pIC50 was above 6.30. For `Cc1cc(C)c(CNC(=O)c2cc3c(c(-c4ccc(N5CCNCC5)cc4)c2)OC(C)(C)C3)c(=O)[nH]1` [Example 18, N-((4,6-Dimethyl-2-oxo-1,2-dihydropyridin-3-yl)methyl)-2,2-dimethyl-7-(4-(piperazin-1-yl)phenyl)-2,3-dihydrobenzofuran-5-carboxamide], the negative logarithm of the IC50 (pIC50) was above 6.30. Regarding `Cc1cc(C)c(CNC(=O)c2cc3c(c(-c4ccc(CN5CCCCC5)cc4)c2)OC(C)(C)C3)c(=O)[nH]1` [Example 19, N-((4,6-Dimethyl-2-oxo-1,2-dihydropyridin-3-yl)methyl)-2,2-dimethyl-7-(4-(piperidin-1-ylmethyl)phenyl)-2,3-dihydrobenzofuran-5-carboxamide], the pIC50 is below 6.00.
